Data on 32 compounds can be found in patent publication US12208088B2 (Genentech, Inc., priority 2018, dated 2025).

Molecules are shown by their SMILES.

The test addresses HPK1 (Homo sapiens (Human), UniProt Q92918). In words: HPK1 Lantha binding assay ("Lanth"). The conditions noted are these: binding assays; Morrison Ki fit. Put shortly: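 Ki values are from Morrison-equation fitting of 665/615 nm TR-FRET signals, taking enzyme level, tracer level and tracer Kd into account. The assay mix held HPK1 (2 nM), Eu-anti-GST antibody (2 nM) and Tracer222 (15 nM). Incubations were two 1 h steps at 23 °C, on 5-fold serial compound dilutions.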

Sequence of HPK1 (Q92918 1-346 limits assumed): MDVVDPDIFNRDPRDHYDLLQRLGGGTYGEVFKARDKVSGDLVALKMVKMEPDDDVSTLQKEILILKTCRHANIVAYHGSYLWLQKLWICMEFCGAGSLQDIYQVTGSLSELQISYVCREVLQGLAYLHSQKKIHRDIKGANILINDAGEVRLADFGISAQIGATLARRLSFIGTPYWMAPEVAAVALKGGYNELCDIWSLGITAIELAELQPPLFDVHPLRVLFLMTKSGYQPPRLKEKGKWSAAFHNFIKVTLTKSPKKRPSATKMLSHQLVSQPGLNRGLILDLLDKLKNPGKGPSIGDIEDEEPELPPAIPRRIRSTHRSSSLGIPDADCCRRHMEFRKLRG

`O=C1COCCN1c1cccc(-c2cnc3c(c2)C2(CC2)CN3)c1F` [Compound 9, 4-(3-(1′,2′-Dihydrospiro[cyclopropane-1,3′-pyrrolo[2,3-b]pyridin]-5′-yl)-2-fluorophenyl)morpholin-3-one] displayed an inhibition constant (Ki) of 38.9 nM. That is a double-digit nanomolar value.
`Nc1cc(-c2cnc3c(c2)C2(CC2)CN3)cc(-c2ncccc2CO)c1` [Compound 10, (2-(3-Amino-5-(1′,2′-dihydrospiro[cyclopropane-1,3′-pyrrolo[2,3-b]pyridin]-5′-yl)phenyl)pyridin-3-yl)methanol] yielded a Ki of 12.7 nM.
Take `NS(=O)(=O)Cc1ccc(-c2cnc3c(c2)C2(CC2)CN3)cc1` [Compound 11, (4-(1′,2′-Dihydrospiro[cyclopropane-1,3′-pyrrolo[2,3-b]pyridin]-5′-yl)phenyl)methanesulfonamide]: the Ki came to 91.2 nM.
Regarding `CN(CCO)C(=O)c1cccc(-c2cnc3c(c2)C2(CC2)CN3)c1F` [Compound 12, 3-(1′,2′-Dihydrospiro[cyclopropane-1,3′-pyrrolo[2,3-b]pyridin]-5′-yl)-2-fluoro-N-(2-hydroxyethyl)-N-methylbenzamide], the affinity, expressed as Ki, was 37.6 nM.
Compound `CC1(C)C(=O)Nc2ccc(-c3cnc4c(c3)C3(CC3)CN4)cc21` [Compound 13, 5-(1′,2′-dihydrospiro[cyclopropane-1,3′-pyrrolo[2,3-b]pyridin]-5′-yl)-3,3-dimethylindolin-2-one] displayed a Ki of 21.6 nM.
Compound `CN(C)C(=O)c1c(N)ccc(-c2cnc3c(c2)C2(CC2)CN3)c1Cl` [Compound 14, 6-amino-2-chloro-3-(1′,2′-dihydrospiro[cyclopropane-1,3′-pyrrolo[2,3-b]pyridin]-5′-yl)-N,N-dimethylbenzamide] yielded a Ki of 863 nM.
The compound `CC1Nc2ncc(-c3ccc(N)c(C(=O)N(C)C)c3F)cc2C12CC2` (centres unmarked) [Compound 15, 6-Amino-2-fluoro-N,N-dimethyl-3-(2′-methyl-1′,2′-dihydrospiro[cyclopropane-1,3′-pyrrolo[2,3-b]pyridin]-5′-yl)benzamide] gave a Ki of 122 nM.
Then `CN(C)C(=O)c1cc(CO)cc(-c2cnc3c(c2)C2(CC2)CN3)c1` [Compound 16, 3-(1′,2′-dihydrospiro[cyclopropane-1,3′-pyrrolo[2,3-b]pyridin]-5′-yl)-5-(hydroxymethyl)-N,N-dimethylbenzamide], with 521 nM; and `Nc1ccc(-c2cnc3c(c2)C2(CC2)CN3)c(F)c1C(=O)N1CCCC1CO` (centres unmarked) [Compound 17, (6-amino-3-(1′,2′-dihydrospiro[cyclopropane-1,3′-pyrrolo[2,3-b]pyridin]-5′-yl)-2-fluorophenyl)(2-(hydroxymethyl)pyrrolidin-1-yl)methanone], with 32.8 nM.
In turn, `CN(C)C(=O)c1cc(-c2cnc3c(c2)C2(CC2)CN3)ccc1CO` [Compound 18, 5-(1′,2′-dihydrospiro[cyclopropane-1,3′-pyrrolo[2,3-b]pyridin]-5′-yl)-2-(hydroxymethyl)-N,N-dimethylbenzamide] displayed a Ki of 259 nM.
Then `CN(C(=O)c1c(N)ccc(-c2cnc3c(c2)C2(CC2)CN3)c1F)C(C)(C)CO` [Compound 19, 6-amino-3-(1′,2′-dihydrospiro[cyclopropane-1,3′-pyrrolo[2,3-b]pyridin]-5′-yl)-2-fluoro-N-(1-hydroxy-2-methylpropan-2-yl)-N-methylbenzamide], with 20.8 nM; and `CC1(O)C(=O)Nc2ccc(-c3cnc4c(c3)C3(CC3)CN4)cc21` (centres unmarked) [Compound 20, 5-(1′,2′-dihydrospiro[cyclopropane-1,3′-pyrrolo[2,3-b]pyridin]-5′-yl)-3-hydroxy-3-methylindolin-2-one], with 212 nM; and `CN(C)S(=O)(=O)c1cccc(-c2cnc3c(c2)C2(CC2)CN3)c1F` [Compound 21, 3-(1′,2′-dihydrospiro[cyclopropane-1,3′-pyrrolo[2,3-b]pyridin]-5′-yl)-2-fluoro-N,N-dimethylbenzenesulfonamide], with 297 nM.
On to `CNS(=O)(=O)c1cccc(-c2cnc3c(c2)C2(CC2)CN3)c1F` [Compound 22, 3-(1′,2′-dihydrospiro[cyclopropane-1,3′-pyrrolo[2,3-b]pyridin]-5′-yl)-2-fluoro-N-methylbenzenesulfonamide], for which the affinity corresponds to a Ki of 869 nM.
`O=C1Nc2ccc(-c3cnc4c(c3)C3(CC3)CN4)cc2C1(O)C1CC1` (centres unmarked) [Compound 23, 3-cyclopropyl-5-(1′,2′-dihydrospiro[cyclopropane-1,3′-pyrrolo[2,3-b]pyridin]-5′-yl)-3-hydroxyindolin-2-one]: affinity was put at a Ki of 184 nM.
The same measure for `CN(C)C(=O)c1c(N)ccc(-c2cnc3c(c2)C2(CN3)CC2(C)C)c1F` (centres unmarked) [Compound 24, 6-Amino-3-(2,2-dimethyl-1′,2′-dihydrospiro[cyclopropane-1,3′-pyrrolo[2,3-b]pyridin]-5′-yl)-2-fluoro-N,N-dimethylbenzamide]: 88.7 nM.
Compound `CN(C)C(=O)c1c(N)ccc(-c2cnc3c(c2)C2(CN3)C3COCC32)c1F` (centres unmarked) [Compound 26, 6-amino-3-(1′,2′-dihydro-3-oxaspiro[bicyclo[3.1.0]hexane-6,3′-pyrrolo[2,3-b]pyridin]-5′-yl)-2-fluoro-N,N-dimethylbenzamide] yielded an inhibitory constant (Ki) of 446 nM.
For the compound `CN(C)C(=O)c1c(N)ccc(-c2cnc3c(c2Cl)C2(CCCC2)CN3)c1F` [Compound 27, 6-Amino-3-(4′-chloro-1′,2′-dihydrospiro[cyclopentane-1,3′-pyrrolo[2,3-b]pyridin]-5′-yl)-2-fluoro-N,N-dimethylbenzamide], the Ki turned out to be 6.71 nM. This Ki lies about 66-fold lower than the previous one.
As to `CN(C)C(=O)c1c(N)ccc(-c2cnc3c(c2Cl)C2(CC=CC2)CN3)c1F` [Compound 28, 6-Amino-3-(4′-chloro-1′,2′-dihydrospiro[cyclopentane-1,3′-pyrrolo[2,3-b]pyridin]-3-en-5′-yl)-2-fluoro-N,N-dimethylbenzamide], the Ki is 6.95 nM. The Ki values of the last two compounds are within 1.5-fold of each other.
The compound `CN(CC(C)(C)O)C(=O)c1c(N)ccc(-c2cnc3c(c2)C2(CC2)CN3)c1F` [Compound 29, 6-amino-3-(1′,2′-dihydrospiro[cyclopropane-1,3′-pyrrolo[2,3-b]pyridin]-5′-yl)-2-fluoro-N-(2-hydroxy-2-methylpropyl)-N-methylbenzamide] displayed a Ki of 30 nM.
`Cc1c(-c2ccc(N)c(C(=O)N(C)C)c2F)cnc2c1C1(CC1)CN2` [Compound 30, 6-Amino-2-fluoro-N,N-dimethyl-3-(4′-methyl-1′,2′-dihydrospiro[cyclopropane-1,3′-pyrrolo[2,3-b]pyridin]-5′-yl)benzamide] had a Ki of 53.9 nM.
`COc1c(-c2ccc(N)c(C(=O)N(C)C)c2F)cnc2c1C1(CC1)CN2` [Compound 31, 6-Amino-2-fluoro-3-(4′-methoxy-1′,2′-dihydrospiro[cyclopropane-1,3′-pyrrolo[2,3-b]pyridin]-5′-yl)-N,N-dimethylbenzamide] registered a Ki of 28.6 nM.
For the compound `Nc1ccc(-c2cnc3c(c2Cl)C2(CC2)CN3)cc1C(=O)N1C2CCC1CC2` [Compound 32, (2-Amino-5-(4′-chloro-1′,2′-dihydrospiro[cyclopropane-1,3′-pyrrolo[2,3-b]pyridin]-5′-yl)phenyl)(7-azabicyclo[2.2.1]heptan-7-yl)methanone], the affinity corresponds to a Ki of 12.8 nM. This Ki lies about 2.2-fold lower than the previous one.
For `Nc1cc(-c2cnc3c(c2Cl)C2(CC2)CN3)cc(-c2ncccc2CO)c1` [Compound 34, (2-(3-Amino-5-(4′-chloro-1′,2′-dihydrospiro[cyclopropane-1,3′-pyrrolo[2,3-b]pyridin]-5′-yl)phenyl)pyridin-3-yl)methanol], the Ki was determined as 6.15 nM.
Then `CN(CCO)C(=O)c1c(N)ccc(-c2cnc3c(c2Cl)C2(CC2)CN3)c1F` [Compound 36, 6-Amino-3-(4′-chloro-1′,2′-dihydrospiro[cyclopropane-1,3′-pyrrolo[2,3-b]pyridin]-5′-yl)-2-fluoro-N-(2-hydroxyethyl)-N-methylbenzamide], with 4.7 nM.
The compound `CN(C)C(=O)c1c(N)ccc(-c2cnc3c(c2Cl)C2(CCC2)CN3)c1F` [Compound 37, 6-Amino-3-(4′-chloro-1′,2′-dihydrospiro[cyclobutane-1,3′-pyrrolo[2,3-b]pyridin]-5′-yl)-2-fluoro-N,N-dimethylbenzamide] gave a Ki of 2.2 nM.
The compound `CN(C)C(=O)c1c(N)ccc(-c2cnc3c(c2Cl)[C@]2(CC[C@@H](O)C2)CN3)c1F` [Compound 38a] registered a Ki of 24.2 nM. Compared with the last compound, the Ki is about 11-fold higher.
The compound `CN(C)C(=O)c1c(N)ccc(-c2cnc3c(c2Cl)[C@]2(CC[C@H](O)C2)CN3)c1F` [Compound 38c, 6-Amino-3-((1R,3S)-4′-chloro-3-hydoxy-1′,2′-dihydrospiro[cyclopentane-1,3′-pyrrolo[2,3-b]pyridin]5′-yl)-2-fluoro-N,N-dimethylbenzamide] came in with a Ki of 8.47 nM. This Ki is about 2.9-fold lower than that of the compound before.
`CN(C)C(=O)c1c(N)ccc(-c2cnc3c(c2Cl)C2(CN3)CC2CO)c1F` (centres unmarked) [Compound 39, 6-Amino-3-(4′-chloro-2-(hydroxymethyl)-1′,2′-dihydrospiro[cyclopropane-1,3′-pyrrolo[2,3-b]pyridin]-5′-yl)-2-fluoro-N,N-dimethylbenzamide] gave a Ki of 17.2 nM.
`CN(C)C(=O)c1c(N)ccc(-c2cnc3c(c2Cl)[C@@]2(CN3)C[C@H]2CO)c1F` [Compound 39a, 6-Amino-3-((1R,2R)-4′-chloro-2-(hydroxymethyl)-1′,2′-dihydrospiro[cyclopropane-1,3′-pyrrolo[2,3-b]pyridin]-5′-yl)-2-fluoro-N,N-dimethylbenzamide] yielded a Ki of 27.7 nM.
Compound `CN(C)C(=O)c1c(N)ccc(-c2cnc3c(c2Cl)[C@]2(CN3)C[C@@H]2CO)c1F` [Compound 39b, 6-Amino-3-((1S,2S)-4′-chloro-2-(hydroxymethyl)-1′,2′-dihydrospiro[cyclopropane-1,3′-pyrrolo[2,3-b]pyridin]-5′-yl)-2-fluoro-N,N-dimethylbenzamide] gave a Ki of 40.5 nM. The Ki values of the last two compounds are within 1.5-fold of each other.
Compound `CN(C)C(=O)c1c(N)ccc(-c2cnc3c(c2Cl)C2(CN3)Cc3ccncc3C2)c1F` (centres unmarked) [Compound 40, 6-Amino-3-(4′-chloro-1′,2′,5,7-tetrahydrospiro[cyclopenta[c]pyridine-6,3′-pyrrolo[2,3-b]pyridin]-5′-yl)-2-fluoro-N,N-dimethylbenzamide] returned a Ki of 15.3 nM.

As a reminder, the Ki is the equilibrium dissociation constant of an inhibitor or competing ligand from its target. Higher therefore signals lower affinity.
